Article PMC4988473, “Evaluation of Three Amorphous Drug Delivery Technologies to Improve the Oral Absorption of Flubendazole” (Journal of Pharmaceutical Sciences, 2016)
≈ marks a conversion by molar mass, not a printed value. Read-outs that look alike come from different tables or passages of the source.

Legend:
[1] = Solubility in ambient conditions; format: physicochemical
LogP of flubendazole = format: physicochemical
Source text: (§1) Table 1 Physicochemical Properties of Flubendazole (FLU) | column: Value

[2] = Apparent permeability (Papp); format: in vitro ADME; settings: not told, AB
Source text: as §1

Onchocerca volvulus = tested on: Onchocerca volvulus; set-up: method as in PMID 6130195; settings: after 12 months of follow-up; 5 weekly injections; cited from earlier work
pKa of flubendazole = format: physicochemical

`COC(=O)Nc1nc2cc(C(=O)c3ccc(F)cc3)ccc2[nH]1` [FLU, flubendazole] showed a solubility ([1]; acetone, organic solvent or mixture, read-out: Solubility in acetone) of 180 µg/mL (≈ 0.575 mM), a solubility ([1]; dichloromethane, organic solvent or mixture, read-out: Solubility in dichloromethane) of 140 µg/mL (≈ 0.447 mM) and a solubility ([1]; formic acid, organic solvent or mixture, read-out: Solubility in formic acid) of 340000 µg/mL (≈ 1090 mM). The solubility ([1]; methanol, organic solvent or mixture, read-out: Solubility in methanol) was 110 µg/mL (≈ 0.351 mM), the solubility ([1]; water, read-out: Solubility in water) was 5 µg/mL (≈ 0.016 mM) and the logP (LogP of flubendazole) was 3. The Papp at 10 μM [2] was 33.8 ×10⁻⁶ cm/s, the “Activity against Onchocerca volvulus compared with diethylcarbamazine” value (Onchocerca volvulus) was “superior activity” and the pKa (pKa of flubendazole) was 9.6. It also gave a pKa (pKa of flubendazole; carbamate group) of 3.6.
